# In US8466193B2, “Selective inhibitors of histone deacetylase” (Pharmacyclics, Inc., priority 2008, dated 2013):
# Tests used:
# [1] = Pharmacokinetic analysis in male rats, oral gavage; type: in vivo; details: CD IGS (Sprague-Dawley derived), rat, plasma, orally at 3 mg/kg, compounds administered in combination
# Protocol: This study, performed in male rats with test compounds (Compound 303 and Compound 316), was designed to provide preliminary information on their pharmacokinetics. The test compounds were administered in combination by oral gavage.
# The specifications for rats used on this study are as follows: • Strain: CD® IGS rats (Sprague-Dawley derived) • Source: Charles River Laboratories • Surgical modification for oral dosing: One portal vein cannula and one jugular vein cannula • Body weight range at dosing 350 to 375 g
# The rats were acclimatized to laboratory conditions for at least 24 hours before dosing. The evening before dosing, food was withheld from the rats and was returned immediately following the 3-hour blood collection time point. Water was provided ad libitum. The rats were housed individually in translucent polycarbonate cages.
# Test compounds were prepared as 3.0 mg/ml solutions (1% MC/0.4% Cr EL in WFI).
# Rats were administered a single dose of test compound in combination by oral gavage. Dose volumes were adjusted based on body weight data collected immediately prior to dosing.
# The dose volume was 1 ml/kg and the nominal dosage was 3 mg/kg.
# Blood samples were collected at 5 minutes, 20 minutes, 1 hour, 3 hours, 6 hours, 9 hours, and 24 hours post-dosing from orally dosed rats. The samples were collected into plasma separator Microtainer tubes with anticoagulant (lithium heparin). Plasma samples were prepared by centrifugation (5 min at 5000×g), and at least 100 μL were transferred to storage tubes and frozen on dry ice. Samples were maintained at approximately −75 C until prepared for analysis.
# Plasma samples were thawed and 75 uL aliquots were transferred to centrifuge tubes to which 10 μL aliquots of internal standard solution (0.5 μg/mL) were added. The samples were not diluted with blank plasma prior to further processing. Soluble proteins were precipitated by the addition of 300 μL of methanol, followed by centrifugation (20 min at 16,000×g). The samples were evaporated to dryness and reconstituted in 100 μL of water containing 0.2% formic acid and 10% methanol. All samples were loaded onto an autosampler maintained at 6° C. and evaluated for concentrations of test compound using LC-MS/MS. lasma concentration data were evaluated using the computer program WinNonlin (Professional Edition, Pharsight Corporation, version 5.01). […]
# Pan HDAC inhibitor 3-((dimethylamino)methyl)-N-(2-(4-(hydroxycarbamoyl)phenoxy)ethyl)benzofuran-2-carboxamide was added to the cassette to serve as a standard since the pharmacokinetics of this compound have been determined previously in rats. The UC's determined for rats administered Compound 303 and Compound 316 orally at 3 mg/kg were 1.42, and 5.36 μg·h/mL, respectively. […]
# HDAC6 = target: T1, HDAC6 (Homo sapiens, UniProt Q9UBN7); experiment: Histone deacetylase activity, continuous trypsin-coupled assay; type: biochemical; details: 15 minutes preincubation; substrate acetyl-Gly-Ala-(N-acetyl-Lys)-AMC
# T1 sequence (Q9UBN7 1-1215): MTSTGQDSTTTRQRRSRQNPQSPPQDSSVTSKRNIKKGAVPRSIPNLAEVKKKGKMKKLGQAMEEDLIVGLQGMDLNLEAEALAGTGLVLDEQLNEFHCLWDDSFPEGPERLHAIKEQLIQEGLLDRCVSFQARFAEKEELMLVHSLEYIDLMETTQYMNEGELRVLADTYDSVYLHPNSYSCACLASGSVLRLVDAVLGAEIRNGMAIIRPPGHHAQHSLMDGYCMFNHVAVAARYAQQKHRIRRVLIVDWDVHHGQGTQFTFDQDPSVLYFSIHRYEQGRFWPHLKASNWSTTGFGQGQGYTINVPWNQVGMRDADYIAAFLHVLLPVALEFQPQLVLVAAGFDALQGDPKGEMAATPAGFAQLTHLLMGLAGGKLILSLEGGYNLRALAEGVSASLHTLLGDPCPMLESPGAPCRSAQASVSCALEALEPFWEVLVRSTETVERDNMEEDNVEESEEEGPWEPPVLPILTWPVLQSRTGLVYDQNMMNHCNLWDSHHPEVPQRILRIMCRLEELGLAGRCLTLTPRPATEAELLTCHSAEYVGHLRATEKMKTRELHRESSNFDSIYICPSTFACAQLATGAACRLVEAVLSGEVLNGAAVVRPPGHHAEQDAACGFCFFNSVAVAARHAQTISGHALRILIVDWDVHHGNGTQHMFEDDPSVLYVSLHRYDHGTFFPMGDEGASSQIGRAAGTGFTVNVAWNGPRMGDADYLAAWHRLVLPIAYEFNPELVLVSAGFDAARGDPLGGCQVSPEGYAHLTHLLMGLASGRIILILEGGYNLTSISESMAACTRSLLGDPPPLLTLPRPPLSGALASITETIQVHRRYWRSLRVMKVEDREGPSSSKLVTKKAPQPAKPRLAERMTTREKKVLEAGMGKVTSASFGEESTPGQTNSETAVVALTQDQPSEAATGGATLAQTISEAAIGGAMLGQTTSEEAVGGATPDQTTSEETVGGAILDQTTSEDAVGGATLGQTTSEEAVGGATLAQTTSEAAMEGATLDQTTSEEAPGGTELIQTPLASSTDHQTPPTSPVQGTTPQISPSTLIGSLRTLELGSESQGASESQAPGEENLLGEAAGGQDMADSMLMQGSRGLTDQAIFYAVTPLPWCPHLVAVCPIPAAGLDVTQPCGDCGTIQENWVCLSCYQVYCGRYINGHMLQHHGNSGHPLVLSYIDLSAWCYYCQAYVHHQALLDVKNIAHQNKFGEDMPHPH
# Protocol: (§1) HDAC activity was measured using a continuous trypsin-coupled assay that has been described in detail previously (US 20070281934; Schultz et. al., Biochemistry, 43 (34), 11083-11091, 2004; Kim et al. (2006), Methods Mol. Biol., 325:273-283). For inhibitor characterization, measurements were performed in a reaction volume of 100 μL using 96-well assay plates in a fluorescence plate reader. For each isozyme, the HDAC protein in reaction buffer (50 mM HEPES, 100 mM KCl, 0.001% Tween-20, 5% DMSO, pH 7.4, supplemented with bovine serum albumin at concentrations of 0-0.05%, was mixed with inhibitor at various concentrations and allowed to incubate for 15 minutes. Trypsin was added to a final concentration of 50 nM, and acetyl-Gly-Ala-(N-acetyl-Lys)-AMC was added to a final concentration of 25-100 μM to initiate the reaction. After a 30 minute lag time, the fluorescence was measured over a 30 minute time frame using an excitation wavelength of 355 nm and a detection wavelength of 460 nm. The increase in fluorescence with time was used as the measure of the reaction rate. Inhibition constants Ki(app) were obtained using the program BatchKi (Biokin, Pullman, Wash.).
# HDAC1 = HDAC1 (Homo sapiens, UniProt Q13547); experiment: as above; type: biochemical; details: 15 minutes preincubation; substrate acetyl-Gly-Ala-(N-acetyl-Lys)-AMC
# Protocol: as §1
# Chain of HDAC1 (Q13547 whole entry, species assumed): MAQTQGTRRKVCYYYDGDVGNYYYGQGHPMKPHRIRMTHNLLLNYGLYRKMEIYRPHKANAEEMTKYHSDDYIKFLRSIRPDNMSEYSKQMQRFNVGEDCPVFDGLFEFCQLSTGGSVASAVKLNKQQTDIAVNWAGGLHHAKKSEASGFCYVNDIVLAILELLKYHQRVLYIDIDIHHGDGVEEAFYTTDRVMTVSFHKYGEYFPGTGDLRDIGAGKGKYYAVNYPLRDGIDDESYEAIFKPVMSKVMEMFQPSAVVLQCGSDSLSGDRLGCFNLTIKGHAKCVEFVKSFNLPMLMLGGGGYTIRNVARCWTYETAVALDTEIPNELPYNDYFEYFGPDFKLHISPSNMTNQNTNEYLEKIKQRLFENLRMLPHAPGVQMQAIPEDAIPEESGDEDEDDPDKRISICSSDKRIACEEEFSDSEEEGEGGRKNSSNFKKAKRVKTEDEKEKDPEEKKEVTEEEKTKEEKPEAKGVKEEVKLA
structure (smiles),measurement,setting,value
"O=C(NO)c1ccc2ccn(CCOc3ccccc3)c2c1 [Compound 316, N-hydroxy-1-(2-phenoxyethyl)-1H-indole-6-carboxamide]",AUC,[1],5360 ng·h/mL
same,Cmax,[1],828 ng/mL
same,IC50,HDAC6,> 10 µM
same,IC50,HDAC1,> 10 µM
